From PMC7156458, “Synthetic biology based construction of biological activity-related library of fungal decalin-containing diterpenoid pyrones” (Nature Communications, 2020)
Where two headings read alike, the source gives them in different places.

Legend:
MAGI cells = experiment: cytotoxicity in the anti-HIV assay (CC50); type: cell-based; conditions: single determinations
Excerpt: (§1) We examined the inhibitory activities of DDPs against various species of bacteria (both gram-negative and gram-positive bacteria), fungi and viruses. […] In contrast, preliminary screening of the DDPs for anti-viral agents with hepatitis B virus (HBV), measles virus (MV), Epstein-Barr virus (EBV), herpes simplex virus (HSV) and human immunodeficiency virus-1 (HIV-1) indicated their selective inhibition of HIV.
Policy information about cell lines […]
HeLa-CD4-LTR/ !-galactosidase (MAGI) cells provided by Dr. J. Overbaugh through the NIH AIDS Research and Reference […]
MAGI cells were authenticated by the NIH.
Mycoplasma contamination All the cell lines tested negative for mycoplasma contamination.
Commonly misidentified lines No commonly mis-identified cell lines. […]

[1] = test system: human immunodeficiency virus-1 (HIV-1); experiment: anti-HIV MAGI assay; type: cell-based; conditions: Human immunodeficiency virus 1, MAGI, anti-HIV
Excerpt: as §1

l(2)mbn cells = experiment: cytotoxicity in Drosophila l(2)mbn cells; type: cell-based; conditions: for Luminescence Raw1: replicate 1; for Luminescence Raw2: replicate 2; for IC50: Drosophila melanogaster, cytotoxicity
Description: (§2) We screened the DDPs on the Drosophila assay system for cytotoxicity, inhibitory activity of innate immune signalling and insecticidal activity. The cytotoxicity of the DDPs was evaluated using two cell lines, embryonic macrophage-derived DL1 cells[58]–[60] and larval blood cell-derived l(2)mbn cells, and their IC50 values are listed in Supplementary Table 23.

[2] = cytotoxicity in Drosophila l(2)mbn cells; type: cell-based; conditions: Drosophila, l(2)mbn cells (larval blood cell-derived)
Description: as §2

MCF-7 cells = experiment: cell cytotoxic effects against MCF-7 cells (72 h), A490; type: cell-based, human; conditions: MCF-7, 72 h
DL1 cells = experiment: cytotoxicity in Drosophila DL1 cells; type: cell-based; conditions: DL1 cells; for IC50: Drosophila melanogaster, cytotoxicity
Description: as §2

[3] = cytotoxicity in Drosophila DL1 cells; type: cell-based; conditions: Drosophila, DL1 cells (embryonic macrophage-derived), DL1 cells
Description: as §2

[4] = average of two replicates, read-out: IC50 Average
[5] = replicate 1, read-out: IC50 (1)
[6] = replicate 2, read-out: IC50 (2)
[7] = replicate 1, relative to DMSO 1%, read-out: % viability, viability 1
[8] = replicate 2, relative to DMSO 1%, read-out: % viability, viability 2

## CC(C)=CCC/C(C)=C/CC/C(C)=C/CC/C(C)=C/Cc1c(O)c(C)c(C)oc1=O [Compound 2]
MAGI cells
  Cytotoxicity: >10 µM
[1]; average of numeric determinations, read-out: Avg. EC50
  EC50: 157 nM

## C=C1CC[C@H]2[C@]3(C)C[C@H](C=C(C)C)O[C@H]3CC[C@]2(C)[C@@H]1Cc1c(OC)oc(C)c(C)c1=O [Compound 24]
l(2)mbn cells; 0.04 µM
  Luminescence Raw1: 3470038
  Luminescence Raw2: 2834452
l(2)mbn cells; 0.2 µM
  Luminescence Raw1: 3507915
  Luminescence Raw2: 3346307
l(2)mbn cells; 1 µM
  Luminescence Raw1: 3332960
  Luminescence Raw2: 3138530
l(2)mbn cells; 4 µM
  Luminescence Raw1: 267094
  Luminescence Raw2: 217335
l(2)mbn cells; 10 µM
  Luminescence Raw1: 164693
  Luminescence Raw2: 160006
l(2)mbn cells; 20 µM
  Luminescence Raw1: 170462
  Luminescence Raw2: 154958
l(2)mbn cells; [4]
  IC50: 3040 nM
l(2)mbn cells; average±SEM, read-out: IC50
  IC50: 3040 ± 160 nM
l(2)mbn cells; [5]
  IC50: 3200 nM
l(2)mbn cells; [6]
  IC50: 2880 nM
[2]; [7]
  viability at 0.04 µM: 135%
  viability at 0.2 µM: 137%
  viability at 1 µM: 130%
  viability at 4 µM: 10.4%
  viability at 10 µM: 6.42%
  viability at 20 µM: 6.64%
[2]; [8]
  viability at 0.04 µM: 110%
  viability at 0.2 µM: 130%
  viability at 1 µM: 122%
  viability at 4 µM: 8.47%
  viability at 10 µM: 6.23%
  viability at 20 µM: 6.04%
MCF-7 cells; Homo sapiens, MCF7, 72 h, 0.1 µM (DMSO 0.002%), read-out: A490 (control =1) ave
  viability at 0.1 µM: 64%
MCF-7 cells; Homo sapiens, MCF7, 72 h, 1 µM (DMSO 0.02%), read-out: A490 (control =1) ave
  viability at 1 µM: 76.3%
MCF-7 cells; Homo sapiens, MCF7, 72 h, 10 µM (DMSO 0.2%), read-out: A490 (control =1) ave
  viability at 10 µM: 12.6%
MCF-7 cells; 0.1 µM (DMSO 0.002%), control 1.064
  A490 ave: 0.680
MCF-7 cells; 1 µM (DMSO 0.02%), control 1.104
  A490 ave: 0.843
MCF-7 cells; 10 µM (DMSO 0.2%), control 1.049
  A490 ave: 0.132
DL1 cells; 0.04 µM, replicate 1
  Luminescence Raw1: 2516748
DL1 cells; 0.04 µM, replicate 2
  Luminescence Raw2: 2332079
DL1 cells; 0.2 µM, replicate 1
  Luminescence Raw1: 850222
DL1 cells; 0.2 µM, replicate 2
  Luminescence Raw2: 975712
DL1 cells; 1 µM, replicate 1
  Luminescence Raw1: 178460
DL1 cells; 1 µM, replicate 2
  Luminescence Raw2: 208026
DL1 cells; 4 µM, replicate 1
  Luminescence Raw1: 158268
DL1 cells; 4 µM, replicate 2
  Luminescence Raw2: 147451
DL1 cells; 10 µM, replicate 1
  Luminescence Raw1: 159710
DL1 cells; 10 µM, replicate 2
  Luminescence Raw2: 170888
DL1 cells; 20 µM, replicate 1
  Luminescence Raw1: 153581
DL1 cells; 20 µM, replicate 2
  Luminescence Raw2: 168364
DL1 cells; [4]
  IC50: 242 nM
DL1 cells; average±SEM, read-out: IC50
  IC50: 240 ± 10 nM
DL1 cells; [5]
  IC50: 237 nM
DL1 cells; [6]
  IC50: 248 nM
[3]; [7]
  viability at 0.04 µM: 122%
  viability at 0.2 µM: 41.3%
  viability at 1 µM: 8.66%
  viability at 4 µM: 7.68%
  viability at 10 µM: 7.75%
  viability at 20 µM: 7.46%
[3]; [8]
  viability at 0.04 µM: 113%
  viability at 0.2 µM: 47.4%
  viability at 1 µM: 10.1%
  viability at 4 µM: 7.16%
  viability at 10 µM: 8.3%
  viability at 20 µM: 8.17%
[1]; MAGI assay, read-out: EC50
  EC50: < 200 nM
